This note sets out measurements from US11590089B2, “Beta-2 selective adrenergic receptor agonists” (The Board of Trustees of the Leland Stanford Junior …, priority 2017, dated 2023).

Molecules are shown by their SMILES. Read-outs that look alike come from different tables or passages of the source.

The target of test [1] is T1, β1-AR (Homo sapiens, UniProt P08588). Kind of test: radioligand binding assay, β1-AR, [3H]CGP12177. The conditions noted are these: radioligand [3H]CGP12177; values given as a range are from screening experiments with a low number of repeats; read-out: Ki β1-AR [3H]CGP12177. The protocol: (§1) The binding affinities of exemplary compounds of interest at β1AR and β2AR were evaluated in a binding assay.
Target sequence in this assay (P08588 whole entry): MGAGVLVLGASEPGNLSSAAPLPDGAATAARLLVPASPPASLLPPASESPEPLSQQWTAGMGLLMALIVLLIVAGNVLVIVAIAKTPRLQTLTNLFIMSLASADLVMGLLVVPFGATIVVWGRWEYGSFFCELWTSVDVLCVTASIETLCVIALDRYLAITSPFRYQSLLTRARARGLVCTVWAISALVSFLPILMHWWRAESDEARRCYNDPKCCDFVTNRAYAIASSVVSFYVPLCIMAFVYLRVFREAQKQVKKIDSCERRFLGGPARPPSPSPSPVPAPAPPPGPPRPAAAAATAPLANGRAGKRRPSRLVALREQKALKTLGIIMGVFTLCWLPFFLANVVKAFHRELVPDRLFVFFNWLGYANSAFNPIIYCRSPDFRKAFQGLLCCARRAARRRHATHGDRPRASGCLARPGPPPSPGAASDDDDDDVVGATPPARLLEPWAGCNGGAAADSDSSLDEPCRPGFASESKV

The target of test [2] is T2, β2-AR (Homo sapiens, UniProt P07550). Nature of the test: β-arrestin-2 recruitment assay at β2-AR. It counts as cell-based. The conditions noted are these: for EC50: ranges from screening experiments with a low number of repeats; for β-arrestin-2 recruitment β2-AR Emax: relative to norepinephrine. (Arrestin recruitment assays detect the binding of arrestin to an activated receptor.)
Target sequence in this assay (P07550 whole entry): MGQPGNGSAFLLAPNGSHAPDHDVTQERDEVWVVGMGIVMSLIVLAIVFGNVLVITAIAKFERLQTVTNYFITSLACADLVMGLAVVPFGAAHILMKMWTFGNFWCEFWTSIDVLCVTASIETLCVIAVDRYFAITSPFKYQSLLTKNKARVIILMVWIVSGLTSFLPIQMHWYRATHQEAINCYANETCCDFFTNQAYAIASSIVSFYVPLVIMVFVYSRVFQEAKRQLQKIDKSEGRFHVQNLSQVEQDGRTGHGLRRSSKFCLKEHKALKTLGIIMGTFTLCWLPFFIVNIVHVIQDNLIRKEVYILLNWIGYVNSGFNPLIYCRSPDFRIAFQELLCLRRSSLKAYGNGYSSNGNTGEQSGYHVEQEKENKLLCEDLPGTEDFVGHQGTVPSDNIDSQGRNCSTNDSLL
Target sequence in this assay (P32121 whole entry partner): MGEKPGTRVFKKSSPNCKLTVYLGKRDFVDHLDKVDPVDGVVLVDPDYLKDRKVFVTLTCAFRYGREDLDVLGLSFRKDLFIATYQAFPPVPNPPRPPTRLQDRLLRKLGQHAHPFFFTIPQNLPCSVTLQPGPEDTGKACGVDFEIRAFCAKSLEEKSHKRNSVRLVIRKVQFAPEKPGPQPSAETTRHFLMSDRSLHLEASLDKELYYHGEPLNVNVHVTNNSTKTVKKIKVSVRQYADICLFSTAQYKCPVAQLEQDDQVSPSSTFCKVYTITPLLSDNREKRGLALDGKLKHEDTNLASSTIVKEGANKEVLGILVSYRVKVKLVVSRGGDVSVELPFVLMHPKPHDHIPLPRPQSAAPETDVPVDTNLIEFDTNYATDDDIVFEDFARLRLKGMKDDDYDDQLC

In test [3] the target is T2, β2-AR. Kind of test: radioligand binding assay, β2-AR, [3H]CGP12177. Particulars: radioligand [3H]CGP12177; values given as a range are from screening experiments with a low number of repeats; read-out: Ki β2-AR [3H]CGP12177. The protocol:
as §1
Target sequence in this assay (P07550 whole entry): as the sequence (P07550 whole entry) above

Test [4] concerns the target T3, •1A-AR (Homo sapiens, UniProt P35348).
T3 sequence (P35348 1-466): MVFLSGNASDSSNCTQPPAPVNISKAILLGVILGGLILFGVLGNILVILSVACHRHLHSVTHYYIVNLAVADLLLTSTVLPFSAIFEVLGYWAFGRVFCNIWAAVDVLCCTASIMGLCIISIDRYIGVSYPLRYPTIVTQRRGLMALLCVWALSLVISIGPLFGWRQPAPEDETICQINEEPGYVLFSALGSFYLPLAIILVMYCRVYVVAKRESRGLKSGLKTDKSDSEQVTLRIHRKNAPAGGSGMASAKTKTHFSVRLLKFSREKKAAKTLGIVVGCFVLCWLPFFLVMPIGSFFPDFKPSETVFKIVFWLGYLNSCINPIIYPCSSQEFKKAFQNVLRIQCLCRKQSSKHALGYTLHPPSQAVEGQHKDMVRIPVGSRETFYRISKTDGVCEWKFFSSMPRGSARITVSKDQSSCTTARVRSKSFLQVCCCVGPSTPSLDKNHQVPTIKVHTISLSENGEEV
Kind of test: radioligand binding assay, α1A-AR, [3H]prazosin.

The target of test [5] is T4, α2A-AR (Homo sapiens, UniProt P08913).
T4 sequence (P08913 1-465): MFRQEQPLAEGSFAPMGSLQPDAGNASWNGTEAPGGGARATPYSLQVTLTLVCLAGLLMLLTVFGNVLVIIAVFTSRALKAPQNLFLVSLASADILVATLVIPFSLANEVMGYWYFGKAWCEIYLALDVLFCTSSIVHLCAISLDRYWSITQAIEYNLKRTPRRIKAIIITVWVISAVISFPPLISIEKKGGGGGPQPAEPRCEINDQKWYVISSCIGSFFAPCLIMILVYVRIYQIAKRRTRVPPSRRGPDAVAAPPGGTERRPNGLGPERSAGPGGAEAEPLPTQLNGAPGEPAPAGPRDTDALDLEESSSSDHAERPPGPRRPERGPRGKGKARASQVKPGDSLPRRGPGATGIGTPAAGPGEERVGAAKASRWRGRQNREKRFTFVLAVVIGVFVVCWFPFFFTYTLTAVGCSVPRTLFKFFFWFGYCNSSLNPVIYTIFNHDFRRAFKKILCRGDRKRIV
Nature of the test: radioligand binding assay, α2A-AR, [3H]RX821002. Particulars: radioligand [3H]RX821002; values given as a range are from screening experiments with a low number of repeats.

Test [6] addresses T1, β1-AR. Kind of test: β-arrestin-2 recruitment assay at β1-AR. Format: cell-based. Particulars: for EC50: n.d. = could not be determined because of lack of activity, ranges from screening experiments with a low number of repeats, read-out: β-arrestin-2 recruitment β1-AR EC50; for β-arrestin-2 recruitment β1-AR Emax: relative to norepinephrine.
Target sequence in this assay (P08588 whole entry): as the sequence (P08588 whole entry) above
Target sequence in this assay (P32121 whole entry partner): as the sequence (P32121 whole entry partner) above
The mark [7] stands for this setting: n.d. = could not be determined because of lack of activity, read-out: β-arrestin-2 recruitment β2-AR EC50.
Setting [8] is: radioligand [3H]prazosin, values given as a range are from screening experiments with a low number of repeats, read-out: Ki •1A-AR [3H]prazosin.

Turning to `Oc1ccc2c(c1O)CC[C@@H](NC(CF)CF)[C@@H]2O` [LM 103, (5R,6R)-6-((1,3-difluoropropan-2-yl)amino)-5,6,7,8-tetrahydronaphthalene-1,2,5-triol], the Ki (commonly the dissociation constant of the complex between target and ligand, obtained from inhibition or displacement) was 10 µM in test [1], 0.63 µM in test [3], more than 100 µM in test [4] (setting [8]) and 53 µM in test [5]. In addition, the EC50 – broadly, the concentration giving half of the maximal effect – in test [2] (setting [7]) stood at 0.64 µM; in test [6] it was 12 µM. Further, the “β-arrestin-2 recruitment β2-AR Emax” value in test [2] came to 109 % norepinephrine. Also, the “β-arrestin-2 recruitment β1-AR Emax” value in test [6] was 18 % norepinephrine.

For the molecule `Oc1ccc2c(c1O)CC[C@@H](NCC1CCC1)[C@@H]2O` [LM 110, (5R,6R)-6-((cyclobutylmethyl)amino)-5,6,7,8-tetrahydronaphthalene-1,2,5-triol], the Ki in test [1] is 51 µM; in test [3] it was 0.17 µM; in test [4], 4 µM; in test [5], 9.9 µM. Moreover, in test [2], the “β-arrestin-2 recruitment β2-AR Emax” value came out at 116 % norepinephrine. For the same molecule, the EC50 in test [2] (β-arrestin-2 recruitment β2-AR EC50, n.d. = could not be determined because of lack of activity) came to 0.079 µM; in test [6], 22 µM. Also, in test [6], the “β-arrestin-2 recruitment β1-AR Emax” value is listed as 25 % norepinephrine.

As to `Oc1ccc2c(c1O)CC[C@@H](NCC1CC(F)(F)C1)[C@@H]2O` [LM 112, (5R,6R)-6-(((3,3-difluorocyclobutyl)methyl)amino)-5,6,7,8-tetrahydronaphthalene-1,2,5-triol], the Ki is 5 to 12 µM in test [1], 0.025 to 0.07 µM in test [3], 5 to 8 µM in test [4] and 8 to 15 µM in test [5]. Also, the EC50 in test [2] (setting [7]) was in the range of 0.01 to 0.02 µM; in test [6], 6 to 14 µM. In addition, in test [2], the “β-arrestin-2 recruitment β2-AR Emax” value worked out at 124 % norepinephrine. The “β-arrestin-2 recruitment β1-AR Emax” value in test [6] is on record as 45 % norepinephrine.

On to `Oc1ccc2c(c1O)CC[C@@H](NC1COC1)[C@@H]2O` [LM 113, (5R,6R)-6-(oxetan-3-ylamino)-5,6,7,8-tetrahydronaphthalene-1,2,5-triol], for which the Ki in test [1] is not below 50 µM; in test [3], 0.6 to 1.5 µM; in test [4] (setting [8]), not below 60 µM; in test [5], 25 to 45 µM. The values for the EC50 in test [2] (setting [7]) and in test [6] were 0.2 to 0.4 µM and more than 100 µM, respectively. Further, the “β-arrestin-2 recruitment β2-AR Emax” value in test [2] is recorded as 115 % norepinephrine. The “β-arrestin-2 recruitment β1-AR Emax” value in test [6] is given as 20 % norepinephrine.

As for `COCC(COC)N[C@@H]1CCc2c(ccc(O)c2O)[C@H]1O` [LM 114, (5R,6R)-6-((1,3-dimethoxypropan-2-yl)amino)-5,6,7,8-tetrahydronaphthalene-1,2,5-triol], the Ki in test [1] was in the range of 40 to 80 µM; in test [3] it was 0.6 to 1.5 µM; in test [4] (setting [8]) it was 10 to 20 µM; in test [5] it was 6 to 12 µM. Also, the results for the concentration giving a half-maximal response (EC50) in test [2] (setting [7]) and in test [6] were 0.5 to 1 µM and 30 to 60 µM, respectively. The “β-arrestin-2 recruitment β2-AR Emax” value in test [2] is given as 125 % norepinephrine. The “β-arrestin-2 recruitment β1-AR Emax” value in test [6] stood at 35 % norepinephrine.

`CC(C)(C)CN[C@@H]1CCc2c(ccc(O)c2O)[C@H]1O` [LM 117, (5R,6R)-6-(neopentylamino)-5,6,7,8-tetrahydronaphthalene-1,2,5-triol]: the Ki was not below 50 µM in test [1], 0.25 to 0.7 µM in test [3], 10 to 20 µM in test [4] (setting [8]) and 15 to 30 µM in test [5]. In addition, the EC50 in test [2] (setting [7]) lay in the range of 0.05 to 0.12 µM; in test [6], 10 to 20 µM. Besides, the “β-arrestin-2 recruitment β2-AR Emax” value in test [2] is recorded as 116 % norepinephrine. For the same molecule, the “β-arrestin-2 recruitment β1-AR Emax” value in test [6] turned out to be 17 % norepinephrine.

Regarding `C[Si](C)(C)CN[C@@H]1CCc2c(ccc(O)c2O)[C@H]1O` [LM 118, (5R,6R)-6-(((trimethylsilyl)methyl)amino)-5,6,7,8-tetrahydronaphthalene-1,2,5-triol], the inhibition constant (Ki) in test [1] is not below 50 µM; in test [3] it was 0.2 to 0.5 µM; in test [4] (setting [8]) it was 5 to 10 µM; in test [5], 8 to 15 µM. Also, the EC50 in test [2] (setting [7]) fell in the range of 0.12 to 0.25 µM; in test [6] it was 25 to 70 µM. Besides, the “β-arrestin-2 recruitment β2-AR Emax” value in test [2] was 119 % norepinephrine. The “β-arrestin-2 recruitment β1-AR Emax” value in test [6] came to 40 % norepinephrine.
